# Assay results published in patent publication US11426385B2, “Methods of improving cancer chemotherapy” (THE REGENTS OF THE UNIVERSITY OF CALIFORNIA, priority 2017, dated 2022).
# “And” between values parts separate entries of the source, which are not always exact repeats. Equal values may be shown once.
# Assays:
# COX-1 = COX-1 inhibitory activity (Table 3); format: biochemical; set-up: dose or concentration left out as unconfirmed
# [1] = system: bladder cancer PDX BL0293; assay: tumor growth and survival in NSG-PDX bladder cancer mouse model BL0293; format: in vivo, NSG mice; settings: for anti-tumor activity, single agent: mice bearing BL0293 tumors
# Method: (§1) Materials and Supplies. Bladder cancer subject-derived xenograft (PDX) models were provided by The Jackson Laboratory (JAX, Bar Harbor, Me.). […] All experiments utilized PDX models within the first five passages. […] Gemcitabine was purchased from LC Laboratories (Woburn, Mass.). […] The cell lines have not been tested and authenticated by the authors.
# (§2) PDX bladder cancer. NSG PDX studies were performed at the University of California Davis with IACUC approval. […] Gemcitabine was dissolved in 0.9% saline and administered at a dose of 150 mg/kg (IP, weekly) for 4 weeks. Animal weight and tumor size were measured twice per week. […] The percentage of tumor growth inhibition (TGI) was calculated as follows; 100%×(1−[(V^treated(final day)−V^treated(initial day))/(V^control(final day)−V^control(initial day))]), where V is tumor volume.
# (§3) Statistics. Data are presented as mean±standard error of the mean (SEM) or mean±standard deviation (SD). Group comparisons were carried out using one-way analysis of variance or Student's t test. Survival analysis was performed using the Kaplan-Meier method. A p value of less than 0.05 was considered statistically significant.
# [2] = system: bladder cancer PDX BL0269; assay: tumor growth in NSG-PDX bladder cancer mouse model BL0269; format: in vivo, NSG mice
# Method: as §1, §2, §3
# [3] = system: bladder cancer PDX BL0808; assay: gemcitabine combination in bladder cancer PDX BL0808; format: in vivo
# Method: PDX BL0808 was implanted into immunodeficient nod scid gamma (NSG) mice and treatment was started once tumor volume reached approximately 250 mm^3. Treatment consisted of either vehicle (5 μL/g PEG300, p.o., once daily until end of study), PTUPB (30 mg/kg in PEG300, p.o., once daily until end of study), gemcitabine (150 mg/kg in WFI, IP, once weekly, 4 times) or a combination of PTUPB with gemcitabine. Tumor volume and animal weight was monitored every other day and mice were sacrificed once tumor size reached 2 cm and tumor specific survival was recorded.
# [4] = toxicity in PDX-bearing mice (body weight, blood counts, chemistry, histology of major organs); set-up: species or system NSG mice; settings: mouse, in vivo
# Method: as §2
# (§4) Blood samples from mice were collected and analyzed for complete blood count (CBC), blood urea nitrogen (BUN), aspartate aminotransferase (AST), creatinine and total bilirubin at the Veterinary Medicine Comparative Pathology Laboratory of University of California Davis. The tumor, heart, liver, spleen, lung and kidney were harvested and the tissue samples were fixed in formalin or frozen at −80° C. […] The membranes were then probed with horseradish peroxidase (HRP) tagged secondary antibodies and epitopes were detected using the ECL Plus Western Blotting Detection Reagent (GE Healthcare, Piscataway, N.J.). Cell proliferation and apoptosis assessed with Ki-67 and cleaved caspase-3 antibodies (Cell Signaling, Danvers, Mass.) using an immunohistochemistry kit per the manufacturer's instructions (BioGenex, Fremont, Calif.).
# p-ERK and p-AKT = assay: Western blot of PDX BL0293 tumor tissue; format: in vivo, NSG mice; settings: day 3; BL0293 tumors
# Method: as §4, with “C. Tumor sections were stained with hematoxylin and eosin (H&E) or were used for immunohistochemistry analysis. A board-certified pathologist provided detailed interpretation of tumor histomorphology and scoring of immunohistochemical staining. Some of the tumor sections were lysed and chromatographed using SDS-PAGE followed by transfer onto a PVDF membrane.” for “C.”
# [5] = system: 5637 bladder cancer cells; assay: 72 hr cell viability assay (MTS) and combination index, 5637; format: cell-based, human; settings: for IC50: single drug, 72 hr
# Method: (§5) Median effect analysis to determine in vitro drug-drug interaction. […] PTUPB was dissolved in dimethyl sulfoxide (DMSO) to a final stock concentration of 10 mM. […] Cells were seeded at 2,000-3,000 cells and 100 μl of medium per well into 96-well plates (Becton Dickinson, Franklin Lakes, N.J.), and incubated overnight. Different concentrations of these two drugs were diluted in culture media and added to each well. The plates were then incubated for an additional 72 hours. The control group was dosed with 0.2% DMSO. Cell viability assays (MTS) were performed according to the manufacturer's protocol (Promega, Madison, Wis.). […] Dose-response curves were generated with GraphPad Prism 5 software (GraphPad Software Inc., La Jolla, Calif.). The combination indices (CI) were determined based on the method of Chou et al (26). CI values were calculated with CompuSyn software (http://www.combosyn.com/).
# [6] = system: J82 bladder cancer cell line; assay: 72 hr cell viability assay (MTS), J82; format: cell-based, human; settings: PTUPB 1, 2, 5, 10 μM
# Method: as §5
# [7] = system: TCCSUP bladder cancer cell line; assay: 72 hr cell viability assay (MTS), TCCSUP; format: cell-based, human; settings: PTUPB 1, 2, 5, 10 μM
# Method: as §5
# [8] = system: T24 bladder cancer cell line; assay: 72 hr cell viability assay (MTS), T24; format: cell-based, human; settings: PTUPB 1, 2, 5, 10 μM
# Method: as §5
# COX-2 and sEH pathways = assay: oxylipin profile analysis (LC-MS/MS) of tumor tissue; format: in vivo, NSG mice
# Method: Oxylipin profile analysis. Lipid extraction and analysis was performed as previously reported (20). Briefly, for tumor lipid mediator extraction, ˜100 mg of tumor tissues was mixed with an antioxidant solution (0.2 mg/mL butylated hydroxytoluene and 0.2 mg/mL triphenylphosphine in methanol), the surrogate solution, and 400 μL of extract solution (0.1% acetic acid with 0.2 mg/mL butylated hydroxytoluene in methanol), and then homogenized. The resulting homogenates were kept overnight at −80° C. Next day, the homogenates were centrifuged and supernatants were collected. The pellets were washed with 0.1% butylated hydroxytoluene and 0.1% acetic acid in methanol and the supernatants were collected and combined. LC-MS/MS analysis of the extracts were carried out on an Agilent 1200SL liquid chromatographic system coupled to a 4000 QTRAP MS/MS instrument (AB Sciex) as described (29).
# [9] = system: carboplatin-DNA adducts in BL0293 tumors; assay: carboplatin-DNA adduct formation in vivo (accelerator mass spectrometry); settings: carboplatin alone; 24 hours after carboplatin
# Description: (§6) Accelerator mass spectrometry to determine platinum-DNA adduct formation.
# DNA was extracted using a Promega Wizard genomic DNA purification kit according to manufacturer's instructions. Ten micrograms of DNA per sample was submitted to Lawrence Livermore National Laboratory (LLNL) for AMS analysis using previously reported protocol (25).
# [10] = system: carboplatin-DNA adducts in 5637 bladder cancer cell line; assay: carboplatin-DNA adduct formation in vitro (accelerator mass spectrometry)
# Method: as §6
# Cells were harvested at the 4 hr time point in one group of dishes and another group was washed and further incubated for 20 hr with fresh drug-free medium before cell harvest in order to determine DNA repair. Cell pellets were stored at −80° C. until DNA extraction.
# [11] = BL0293, PTUPB 30 mg/kg orally once daily, cisplatin 2 mg/kg i.v.
compound,measurement,setting,value
"NS(=O)(=O)c1ccc(-n2nc(CCCNC(=O)Nc3ccc(C(F)(F)F)cc3)cc2-c2ccccc2)cc1 [PTUPB, 4-(5-phenyl-3-{3-[3-(4-trifluoromethyl-phenyl)-ureido]-propyl}-pyrazol-1-yl)-benzenesulfonamide]",COX-1 (% inhibition),COX-1,22.7%
same,median time to a […] increase in tumor volume,[1]; [11],24.4 days
same,overall survival,[1]; [11],39.4 days
same,"anti-tumor activity, single agent",[1],moderate anti-tumor activity
same,inhibition of tumor growth on addition to GC (gemcitabine and cisplatin),"[2]; PTUPB 30 mg/kg, cisplatin 2 mg/kg, gemcitabine 150 mg/kg",best inhibition of tumor growth
same,potentiation of cisplatin with respect to inhibiting tumor growth,[2]; combined with cisplatin 2 mg/kg,best and most statistically significant potentiation
same,gemcitabine chemotherapy efficacy (tumor volume),[3]; PTUPB 30 mg/kg p.o. with gemcitabine 150 mg/kg IP,extends gemcitabine chemotherapy efficacy
same,gemcitabine toxicity (animal weight),[3]; PTUPB with gemcitabine,does not increase gemcitabine toxicity
same,tumor specific survival,[3]; PTUPB with gemcitabine,increases tumor specific survival
same,body weight change,[4],slightly decreased body weight
same,histology examination of major organs,[4],no such morphology changes were observed
same,levels of p-ERK and p-AKT,p-ERK and p-AKT,did not significantly diminish
same,IC50,[5]; Homo sapiens,90.4 µM
same,drug-drug interaction with cisplatin (combination index),"[5]; PTUPB 1, 2, 5 and 10 μM with cisplatin at 5 μM",modest synergistic effects
same,effect on cisplatin cytotoxicity,[6],did not increase cisplatin cytotoxicity
same,effect on cisplatin cytotoxicity,[7],did not increase cisplatin cytotoxicity
same,effect on cisplatin cytotoxicity,[8],did not increase cisplatin cytotoxicity
same,"effect on diol metabolites 10,11-DiHDPE and 15,16-DiHODE",COX-2 and sEH pathways; BL0269 tumors,no effect
same,"increase of 10,11-EpDPE, 15,16-EpODE",COX-2 and sEH pathways; BL0269 tumors,approximately two-fold increase
same,"reduction of levels of prostaglandins PGE2, PGD2, TXB2, 6-keto-PGF1α in tumor","COX-2 and sEH pathways; mouse, in vivo",~50%
same,"decrease of diol metabolite 12,13-DiHOME",COX-2 and sEH pathways; tumor,~2 fold
same,"increase of 12,13-EpOME",COX-2 and sEH pathways; tumor,approximately two-fold increase
"N.N.[Cl][Pt][Cl] [cisplatin, reference compound]",overall survival,[1]; [11],47.0 days and 47 days
same,"anti-tumor activity, single agent",[1],moderate anti-tumor activity
same,tumor growth,[2],resistant
same,levels of p-ERK and p-AKT,p-ERK and p-AKT,did not significantly diminish
same,IC50,[5],4.5 µM
carboplatin,carboplatin-DNA adduct levels in tumor DNA,[9],1070±317 adducts/10^8 nt
same,DNA repair rate,[10]; 5637 cells,21.2 +/−1.3 adducts/10^8 nt per hour
same,platinum-DNA adduct formation,"[10]; after 4h, carboplatin 100 μM, PTUPB 10 μM simultaneously",528±41 adducts per 10^8 nt
same,platinum-DNA adduct levels,"[10]; at 24 hours (4 hours drug, 20 hours drug-free medium)",104.1 +/−17.7 adducts/10^8 nt
same,carboplatin induced DNA adduct formation,"[10]; pretreatment with 10 μM PTUPB for 5 hours, then carboplatin",706 +/−26 adducts per 10^8 nt
